In PMC8811960, “A Novel 2-Carbon-Linked Dimeric Artemisinin With Potent Antileukemic Activity and Favorable Pharmacology” (Frontiers in Oncology, 2022):
Like-named read-outs stand apart in the source and are kept apart here.

Assays:
[1] = Phase I microsomal stability, mouse liver microsomes; format: in vitro ADME
Experimental: The metabolic stability of ART631 was assessed in human and mouse plasma and liver microsomes (LM). For phase I microsomal stability assays, analogs (10 µM in <1% acetonitrile) were incubated in PBS containing liver microsomes, with or without cofactors ([22]). Microsomal controls (without cofactors) were used to determine non-enzymatic degradation. All experiments were incubated at 37°C for 1h and performed in duplicate. Reactions were stopped with acetonitrile and analyzed as described below.
(§1) ART631 was extracted from 25 µL plasma or microsomal solutions with 100 µL acetonitrile containing artemisinin (i.e. the natural product) as internal standard. […] Mobile phase A was ammonium acetate (2mM) containing 0.1% formic acid, and mobile phase B was acetonitrile containing 0.1% formic acid. The gradient started with mobile phase B and was held at 40% for 0.5 minutes with a flow rate of 0.4 mL/min, then increased to 100% over 1.5 minutes and held for 2.0 minutes, and finally returned back to 40% mobile phase B and allowed to equilibrate for 2.0 minutes. An AB Sciex 5500 triple quadrupole mass spectrometer operated in positive electrospray ionization mode was used for the detection of ART631. For stability studies, the ratio of ART631 to the internal standard, artemisinin, was assessed. Calibration curves for ART631 were computed using the ratio of the peak area to that of the internal standard by using a quadratic equation with a 1/x^2 weighting function over the range of 8-1585 nM with dilutions of up to 1:10 (v/v).

THP1 = assay: alamarBlue growth inhibition, THP1; format: cell-based; details: Homo sapiens, THP-1, THP1, 48h, mean of 2 independent assays ± SD
Experimental: (§2) Cytotoxicity was assessed using alamarBlue assays (Life Technologies, Grand Island, NY) following manufacturer’s guidelines. Cell death was verified by Annexin V/7-aminoactinomycin D (7AAD) staining (BioLegend, San Diego, CA) per manufacturer’s guidelines.

[2] = Plasma pharmacokinetics after oral dosing in NRG mice; format: in vivo; details: mouse; for Vd/F: read-out: Vz/F
Experimental: Mice were dosed orally with ART631 at empirically determined maximally tolerated doses (MTDs) of 75 mg/kg ART631 as a single dose alone or 15 mg/kg as a multiple dose regimen (once daily x5), either alone or in combination with SOR (30 mg/kg/d) and VEN (150 mg/kg/d), for side-by-side comparison to the ART838, SOR and VEN combination evaluated previously ([20]). ART631, SOR, and VEN were mixed in vehicle and given as a single administration. Mice (n = 3/time point) were euthanized at 0.5, 1, 1.5, 2, 3, 4, 6, 8 and 12 h after dosing. ART631 was quantified in plasma as described below. Pharmacokinetic parameters were calculated from mean concentration-time data using non-compartmental methods in Phoenix WinNonlin version 8.3 (Certara, Princeton, NJ). The maximum plasma concentration (Cmax) and time to Cmax (Tmax) were the observed values. The AUClast was calculated using the log-linear trapezoidal method. AUC was extrapolated to infinity (AUCINF) by dividing the last quantifiable concentration by the terminal disposition rate constant (λz). The λz was determined from at least 3 points on the slope of the terminal phase of the concentration-time profile. The terminal half-life (T1/2) was determined by dividing 0.693 by λz. Apparent clearance (Cl/F) was calculated by dividing the dose administered by AUCINF. Apparent volume of distribution (V/F) was calculated by dividing Cl/F by λz. If the percent AUC extrapolated was >20% or the r^2 of λz was <0.85, the AUCINF, Cl/F, T1/2 and V/F were not reported.
The Method of Bailer was used to estimate the variance of AUC given the calculated variance of the mean concentration at each time point ([23]). A pairwise comparison utilizing Z test was used to determine whether there was a significant difference between ART631 exposures as expressed by AUClast ([24]). In all cases, p < 0.05 was considered statistically significant.
as §1

HL60 = assay: alamarBlue growth inhibition, HL60; format: cell-based; details: Homo sapiens, HL-60, HL60, 48h, mean of 2 independent assays ± SD
Experimental: as §2

K562 = assay: alamarBlue growth inhibition, K562; format: cell-based; details: Homo sapiens, K562, 48h, mean of 2 independent assays ± SD
Experimental: as §2

HEL = assay: alamarBlue growth inhibition, HEL; format: cell-based; details: Homo sapiens, 48h, mean of 2 independent assays ± SD
Experimental: as §2

[3] = test system: MOLM14, MV4;11, and HL60 human AML cells; set-up: method as in PMID 33560385; details: ART631 200 nM, VEN 50 nM, SOR 5 µM; MOLM14, MV4;11, HL60; cited from earlier work
KG1a = assay: alamarBlue growth inhibition, KG1a; format: cell-based; details: Homo sapiens, KG-1a, 48h, mean of 2 independent assays ± SD
Experimental: as §2

MV4;11 = assay: alamarBlue growth inhibition, MV4;11; format: cell-based; details: Homo sapiens, MV4;11, 48h, mean of 2 independent assays ± SD
Experimental: as §2

[4] = 15 mg/kg/day, NRG mice plasma, 15 mg/kg/d PO qd x 5 alone, after 5th dose
[5] = NRG mice plasma, 15 mg/kg/d PO qd x 5 in SAV (SOR 30 mg/kg/d, VEN 150 mg/kg/d), after 5th dose
[6] = NRG mice plasma, 75 mg/kg PO x 1

Q: What does the source list for `C=CCO/N=C(/C[C@H]1O[C@@H]2O[C@@]3(C)CC[C@H]4[C@H](C)CC[C@@H]([C@H]1C)[C@@]24OO3)[C@H]1O[C@@H]2O[C@@]3(C)CC[C@H]4[C@H](C)CC[C@@H]([C@H]1C)[C@@]24OO3` [ART631]?
A: percentage remaining, Phase I Metabolism MLM NADPH(+) ([1]; 10 µM, 37°C, 1h, with cofactors): 35%; percentage remaining, Phase I Metabolism MLM NADPH(-) ([1]; 10 µM, 37°C, 1h, without cofactors): 60%; degradation in mouse liver microsomes with co-factors ([1]; NADPH-dependent phase I metabolism): ~ 40%; IC50 (THP1): 42 ± 2 nM; half-life ([2]; NRG, plasma, oral, ART631 alone, single and multiple dose regimens, read-out: half-life): 1.1 to 1.7 h; AUC(0-t) [2, 4]: 2.74 µM·h; CL/F [2, 4]: 145 mL/min/kg; Cmax [2, 4]: 935 nM; Tmax [2, 4]: 2 h; half-life ([2]; 15 mg/kg/day, NRG mice plasma, 15 mg/kg/d PO qd x 5 alone, after 5th dose, read-out: T1/2 (converted)): 1.7 h; Vd/F [2, 4]: 21.5 L/kg; AUC(0-t) [2, 5]: 3.73 µM·h; CL/F [2, 5]: 102 mL/min/kg; Cmax [2, 5]: 719 nM; Tmax [2, 5]: 2 h; half-life ([2]; NRG mice plasma, 15 mg/kg/d PO qd x 5 in SAV (SOR 30 mg/kg/d, VEN 150 mg/kg/d), after 5th dose, read-out: T1/2 (converted)): 2.4 h; Vd/F [2, 5]: 21.3 L/kg; AUC(0-t) [2, 6]: 22.9 µM·h; CL/F [2, 6]: 86.7 mL/min/kg; Cmax [2, 6]: 13100 nM; Tmax [2, 6]: 1.5 h; half-life ([2]; NRG mice plasma, 75 mg/kg PO x 1, read-out: T1/2 (converted)): 1.1 h; Vd/F [2, 6]: 8.4 L/kg; IC50 (HL60): 41 ± 9 nM; IC50 (K562): > 1000 nM; IC50 (HEL): 45 ± 5 nM; cell death as single agents [3]: less than 15%; IC50 (KG1a): 29 ± 2 nM; IC50 (MV4;11): 27 ± 2 nM
